Assay results reported in US5945436A, “Pyridylmethyl nitriles, amides and thioamides useful as fungicides” (Uniroyal Chemical Company, Inc., priority 1997, dated 1999).

Experiments:
Pyricularia oryzae = assay: whole plant or invertebrate; assay type: in vivo; settings: for pest or weed control at 1000 µg/mL: Pyricularia oryzae, in Hordeum vulgare, foliar, 216 h, read-out: Percent Reduction of Disease, PYR ORY, barley, foliar, 1,000 mg/l; for Percent Reduction of Disease, PYR ORY: barley, foliar, 1,000 mg/l
Helminthosporium sativum = assay: Barley spot blotch, foliar treatment (HEL SAT); assay type: in vivo; settings: foliar, 1,000 mg/l; for pest or weed control at 1000 µg/mL: Helminthosporium, foliar, 216 h, read-out: Percent Reduction of Disease, HEL SAT
In short: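 Six-day-old "Robust" barley, 10 plants per pot, sprayed at 1,000 mg/l (acetone solution emulsified in water with TWEEN 20) or left unsprayed as controls. All plants then inoculated with H. sativum spores, held 24 h at 99% humidity, then 8 days in greenhouse at 21° C. Percent control computed.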

[1] = tested on: Cercosporidium personatum; assay: Fungal germination and growth, treated disc on agar, scored (CER PER); assay type: cell-based; design: key: 100: Complete inhibition of germination and growth.; 80: Nearly complete inhibition but some growth.; 50: Partial inhibition of growth or, early complete inhibition but later growth begins.; 20: Some inhibition of growth, but not significant.; 0: No inhibition of growth; settings: disc dipped in 500 mg/l, 29° C., numerical score 0-100, spore suspension
Source text: Filter paper discs, each 11 mm. in diameter, were dipped in each of the test solutions. The discs were allowed to air dry to drive off the acetone solvent. A number of untreated discs were used as controls. The treated and untreated discs were then placed on agar plates and one of the following fungus species: Septoria nodorum (SEP NOD), Botrytis cinerea (BOT CIN), Fusarium oxysporum (FUS OXY), Pythium ultimum ([…]), Rhizoctonia solani (RHI SOL), Colletotrichum gossypii (COL GOS), and Scierotinia minor (SCL MIN), was added to the center of each disc in the form of a culture plug with the fungus mat in contact with the paper of the test disc. Cercosporidium personatum (CER PER), was added to discs as a spore suspension (20,000 spores/ml) to the disc (two drops of spore suspension per disc), rather than a mycelial culture plug. The plates were then incubated at 29° C. in an oven. In the case of the Cercosporidium personatum (CER PER) fungi, scoring was done on a numerical basis as follows: 100=Complete inhibition of germination and growth. 80=Nearly complete inhibition but some growth. 50=Partial inhibition of growth or, early complete inhibition but later growth begins. 20=Some inhibition of growth, but not significant. 0=No inhibition of growth. The results of all the above tests appear in Table III below under the headings "SEP NOD," "BOT CIN," "FUS OXY," "[…]" "COL GOS" and "CER PER".

Pythium ultimum = assay: Fungal growth inhibition, treated disc on agar (PYT ULT); assay type: cell-based; settings: disc dipped in 500 mg/l, 29° C.; for inhibition at 500 µg/mL: Globisporangium ultimum, read-out: Percent Growth Inhibition, PYT ULT
Experimental: (§1) The treated and untreated discs were then placed on agar plates and one of the following fungus species: Septoria nodorum (SEP NOD), Botrytis cinerea (BOT CIN), Fusarium oxysporum (FUS OXY), Pythium ultimum (PYT ULT), Rhizoctonia solani (RHI SOL), Colletotrichum gossypii (COL GOS), and Scierotinia minor (SCL MIN), was added to the center of each disc in the form of a culture plug with the fungus mat in contact with the paper of the test disc. Cercosporidium personatum (CER PER), was added to discs as a spore suspension (20,000 spores/ml) to the disc (two drops of spore suspension per disc), rather than a mycelial culture plug. The plates were then incubated at 29° C. in an oven.
(§2) With the exception of the discs containing Cercosporidium personatum, the discs were evaluated by first measuring the radius from the center of the fungus colony on the treated discs and on the untreated discs. Percent growth inhibition of each of the compounds tested was determined as a function of the difference between the radius of the fungus colony on the treated disc versus the radius of the fungus colony on the untreated disc.

Scierotinia minor = assay: Fungal growth inhibition, treated disc on agar (SCL MIN); assay type: cell-based; settings: disc dipped in 500 mg/l, 29° C.; for inhibition at 500 µg/mL: read-out: Percent Growth Inhibition, SCL MIN
Botrytis cinerea = assay: Fungal growth inhibition, treated disc on agar (BOT CIN); assay type: cell-based; settings: disc dipped in 500 mg/l, 29° C.; for inhibition at 500 µg/mL: Botrytis cinerea, read-out: Percent Growth Inhibition, BOT CIN
Experimental: as §1, §2

Colletotrichum gossypii = assay: Fungal growth inhibition, treated disc on agar (COL GOS); assay type: cell-based; settings: disc dipped in 500 mg/l, 29° C.; for inhibition at 500 µg/mL: Colletotrichum gossypii, read-out: Percent Growth Inhibition, COL GOS

Compound	pest or weed control at 1000 µg/mL (Pyricularia oryzae) [%]	pest or weed control at 1000 µg/mL (Helminthosporium sativum) [%]	CER PER inhibition score [1]	inhibition at 500 µg/mL (Pythium ultimum) [%]	inhibition at 500 µg/mL (Scierotinia minor) [%]	inhibition at 500 µg/mL (Botrytis cinerea) [%]	inhibition at 500 µg/mL (Colletotrichum gossypii) [%]	Percent Reduction of Disease, PYR ORY (Pyricularia oryzae) [%]	Percent Reduction of Disease, HEL SAT (Helminthosporium sativum) [%]	Percent Growth Inhibition, PYT ULT (Pythium ultimum) [%]	Percent Growth Inhibition, SCL MIN (Scierotinia minor) [%]	Percent Growth Inhibition, BOT CIN (Botrytis cinerea) [%]	Percent Growth Inhibition, COL GOS (Colletotrichum gossypii) [%]
N#CC(CCF)(CCc1ccc(F)cc1)c1cccnc1 (stereo not shown) [Compound 53]	70	90	0	5	100	100	100	–	–	–	–	–	–
CCCC(C#N)(CCCc1ccc(Cl)cc1)c1cccnc1 (stereo not shown) [Compound 12]	85	100	100	90	92	98	93	–	–	–	–	–	–
CCCCC(C#N)(CCc1ccccc1C(F)(F)F)c1cccnc1 (stereo not shown) [Compound 73]	0	100	0	69	100	100	85	–	–	–	–	–	–
CCCCCCC(C#N)(Cc1ccc(C(C)(C)C)cc1)c1cccnc1 (stereo not shown) [Compound 16]	20	85	0	45	5	20	42	–	–	–	–	–	–
C#CCC(CCc1ccccc1)(C(N)=S)c1cccnc1 (stereo not drawn) [Compound 61, α-(2-phenylethyl)-α-(2-propynyl)-3-pyridinethanethioamide]	50	85	100	100	100	100	100	–	–	–	–	–	–
C=CCC(C#N)(CCc1ccccc1F)c1cccnc1 (stereo not shown) [Compound 67]	0	100	100	20	100	100	100	–	–	–	–	–	–
N#CC(CCCc1ccc(Cl)cc1)(CC1CC1)c1ccccn1 (stereo not shown) [Compound 32]	–	–	0	–	–	–	–	100	90	0	98	96	97
CCCC(C#N)(CCc1ccc(OCC)cc1)c1cccnc1 (stereo not shown) [Compound 46]	0	100	0	59	100	100	100	–	–	–	–	–	–
CCCCC(C#N)(CCc1ccccc1F)c1cccnc1 (stereo not shown) [Compound 74]	0	100	0	36	100	100	100	–	–	–	–	–	–
C=CCC(C#N)(CCc1ccc(OCCCC)cc1)c1cccnc1 (stereo not shown) [Compound 56]	90	100	0	5	45	100	35	–	–	–	–	–	–
N#CC(CCCF)(CCc1ccccc1F)c1cccnc1 (stereo not shown) [Compound 66]	0	100	0	0	100	100	100	–	–	–	–	–	–
CCCC(C#N)(Cc1ccc(C(C)(C)C)cc1)c1cccnc1 (stereo not shown) [Compound 14]	100	60	0	10	5	15	5	–	–	–	–	–	–
COc1ccc(CCC(C#N)(CC(C)C)c2ccccn2)cc1 (stereo not shown) [Compound 29]	–	–	100	–	–	–	–	85	100	0	94	98	95
COCC(C#N)(CCc1ccc(F)cc1)c1cccnc1 (stereo not shown) [Compound 51]	20	90	100	0	100	100	100	–	–	–	–	–	–
CCCCC(C#N)(CCc1ccc(C)cc1)c1cccnc1 (stereo not shown) [Compound 34]	0	100	0	0	100	100	100	–	–	–	–	–	–
CC(C)CCC(C#N)(CCc1ccc(F)cc1)c1cccnc1 (stereo not shown) [Compound 55]	–	–	0	–	–	–	–	70	90	20	55	40	30
CCCCC(C#N)(CCCc1ccccc1OC)c1cccnc1 (stereo not shown) [Compound 63]	0	0	0	10	100	40	25	–	–	–	–	–	–
CCCCC(C#N)(CCc1ccccc1)c1ccncc1 (stereo not shown) [Compound 26]	0	0	0	0	96	5	75	–	–	–	–	–	–
C#CCC(C#N)(CCc1ccc(F)cc1)c1cccnc1 (stereo not shown) [Compound 41]	92	100	0	9	48	32	100	–	–	–	–	–	–
CCCCCCC(C#N)(CCc1ccc(OCC)cc1)c1cccnc1 (stereo not shown) [Compound 44]	17	100	100	89	100	43	100	–	–	–	–	–	–
CCCCC(C#N)(CCCc1ccc(OC)cc1)c1cccnc1 (stereo not shown) [Compound 76]	0	100	100	0	100	100	100	–	–	–	–	–	–
COCC(C#N)(CCc1ccccc1)c1cccnc1 (stereo not shown) [Compound 6]	0	100	0	50	100	100	95	–	–	–	–	–	–
CCCCOc1ccc(CCC(C#N)(CCC)c2cccnc2)cc1 (stereo not shown) [Compound 57]	100	100	0	5	65	30	15	–	–	–	–	–	–
CCCCC(C#N)(CCc1ccc(OCCF)cc1)c1cccnc1 (stereo not shown) [Compound 68]	70	100	100	40	100	100	100	–	–	–	–	–	–
CCCCOc1ccc(CCC(C#N)(CC(C)C)c2cccnc2)cc1 (stereo not shown) [Compound 58]	85	0	0	0	75	10	15	–	–	–	–	–	–
